Data: patent publication US20240122179A1, “AUXINIC HERBICIDES AND METHODS OF USE THEREOF” (CORTEVA AGRISCIENCE LLC, priority 2021, published 2024)
Like-named read-outs stand apart in the source and are kept apart here.

What was measured:
[1] = Volatility of compounds measured by thermogravimetric analysis (TGA), rate of weight loss; assay type: physicochemical; conditions: estimates of volatility
Excerpt: Briefly, the rate of weight loss measured in units of […]g/min can be used to determine vapor pressure as shown by the simplified equation: wherein, k is the intrinsic volatility and A is the surface area, Referring now to FIG. 2. A graph of weight loss as function of time for solid samples produces a linear curve; the slope of the curve is the rate of weight loss. When this method is used to measure the volatility of aqueous salt concentrates or liquid concentrates, the water or acetone present in the sample volatilizes before the sample of interest. The first linear loss region of the curve is the loss of water or acetone and the second linear region is characteristic of the sample of interest. In order to illustrate the difference in volatility between some of the compounds disclosed herein and the widely used herbicide dicamba, data from both the compounds and dicamba are presented Table 3 and in FIG. 1.

Amaranthus rudis (AMATA) = test: Postemergence herbicide evaluation, percent reduction in plant size vs untreated control, 21 days after treatment; assay type: in vivo, Amaranthus rudis (tall water hemp); conditions: Amaranthus tuberculatus, post-emergence, 504 h, AMATA, postemergence, read-out: Control/Injury; for pest or weed control at 140 g/ha: rate 140 g ae/ha; for pest or weed control at 280 g/ha: rate 280 g ae/ha
In short: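 Growth-reduction values are percent decrease in plant size relative to untreated plants, scored 21 days post-application. Amaranthus rudis (2-8 leaves) received postemergence sprays at 140 or 280 g ae/ha, 187 L/ha, in a mixed acetone/DMSO/water/isopropanol carrier with crop oil concentrate. Greenhouse conditions were 25-28° C, 50-60% RH; 3-4 randomized replicates.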

[2] = system: Ambrosia artemisiifolia (AMBEL); test: as above; assay type: in vivo, Ambrosia artemisiifolia (common ragweed); conditions: post-emergence, 504 h, AMBEL, postemergence, read-out: Control/Injury; for pest or weed control at 140 g/ha: rate 140 g ae/ha; for pest or weed control at 280 g/ha: rate 280 g ae/ha
In short: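 Test compounds at 140 or 280 g ae/ha were applied by track sprayer (187 L/ha, spray solution containing acetone/DMSO, isopropanol, crop oil, surfactant) to 2–8 leaf plants, 3–4 replicates. Plants were kept in a greenhouse at 25–28 °C. Size reduction was scored against untreated controls at 21 days.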

Kochia scoparia (KCHSC) = test: as above; assay type: in vivo; conditions: Bassia scoparia, post-emergence, 504 h, KCHSC, postemergence, read-out: Control/Injury; for pest or weed control at 140 g/ha: rate 140 g ae/ha; for pest or weed control at 280 g/ha: rate 280 g ae/ha
In short: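 Values are percent reduction in plant size against an untreated control, measured 21 days after a single postemergence spray at 140 or 280 g ae/ha (187 L/ha, 276 kPa). Treatments used 3-4 randomized complete-block replicates on 2 to 8 leaf-stage plants kept in a 25-28 °C greenhouse, with compounds in acetone/DMSO-based solvent containing crop oil and surfactant.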

[3] = system: Amaranthus palmeri (AMAPA); test: as above; assay type: in vivo, Amaranthus palmeri (Palmer amaranth); conditions: post-emergence, 504 h, postemergence, read-out: Control/Injury; for pest or weed control at 140 g/ha: rate 140 g ae/ha; for pest or weed control at 280 g/ha: rate 280 g ae/ha
In short: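 Percent reduction in plant size relative to untreated plants, measured 21 days after track-sprayer application (187 L/ha) of 140 or 280 g ae/ha to Amaranthus palmeri at the 2 to 8 leaf stage. Randomized complete block, 3 or 4 replicates, greenhouse at 25 to 28° C; spray solution acetone/DMSO with isopropanol, water and crop oil concentrate.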

[4] = system: Conyza canadensis (L.) (ERICA); test: as above; assay type: in vivo, Conyza canadensis (L.) (Horseweed); conditions: Erigeron canadensis, post-emergence, 504 h, ERICA, postemergence, read-out: Control/Injury; for pest or weed control at 140 g/ha: rate 140 g ae/ha; for pest or weed control at 280 g/ha: rate 280 g ae/ha
In short: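 Track-sprayer applications (187 L/ha, 276 kPa) of 140 or 280 g ae/ha, technical material dissolved in acetone/DMSO then diluted with crop oil and surfactant-containing solvent, to greenhouse Conyza canadensis at 2-8 leaves. After 21 days, size reduction relative to untreated plants was recorded; 3-4 randomized replicates.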

Glycine max = test: whole plant or invertebrate; conditions: for Control/Injury: in vivo; for plant injury at 140 g/ha / plant injury at 280 g/ha: Glycine max, post-emergence, 504 h, read-out: Control/Injury
In short: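 Greenhouse soybean (25–28 °C, 16 h light) sprayed post-emergence at 2–8 leaf stage with 140 or 280 g ae/ha in acetone/DMSO-based spray solution with crop oil concentrate, 187 L/ha by track sprayer; 3–4 replicates, randomized blocks. Plant size reduction versus untreated control measured 21 days after treatment.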

[5] = percent reduction vs untreated, 21 days after treatment
[6] = R-AMAPA, percent reduction vs untreated control, 21 days after treatment
[7] = percent reduction vs untreated control, 21 days after treatment

| SMILES | pest or weed control at 140 g/ha (Amaranthus rudis (AMATA)) [%] | pest or weed control at 280 g/ha (Amaranthus rudis (AMATA)) [%] | pest or weed control at 140 g/ha [2] [%] | pest or weed control at 280 g/ha [2] [%] | pest or weed control at 140 g/ha (Kochia scoparia (KCHSC); [5]) [%] | pest or weed control at 280 g/ha (Kochia scoparia (KCHSC); [5]) [%] | Control/Injury (Glycine max) | pest or weed control at 140 g/ha [3, 6] [%] | pest or weed control at 280 g/ha [3, 6] [%] | pest or weed control at 140 g/ha (Kochia scoparia (KCHSC); [7]) [%] | pest or weed control at 280 g/ha (Kochia scoparia (KCHSC); [7]) [%] | pest or weed control at 140 g/ha [4, 7] [%] | pest or weed control at 280 g/ha [4, 7] [%] | plant injury at 140 g/ha (Glycine max) [%] | plant injury at 280 g/ha (Glycine max) [%] | other results |
| --- | --- | --- | --- | --- | --- | --- | --- | --- | --- | --- | --- | --- | --- | --- | --- | --- |
| COc1ccc(/C(N)=N/OC(=O)c2c(Cl)ccc(Cl)c2OC)cc1 [Compound A-20] | – | – | – | – | – | – | – | – | – | – | – | – | – | – | – | Volatility [1]: 0.04 ng/min |
| COc1c(Cl)ccc(Cl)c1C(=O)O/N=C(\C)C/C(C)=N/OC(=O)c1c(Cl)ccc(Cl)c1OC [Compound A-58] | – | – | – | – | – | – | – | – | – | – | – | – | – | – | – | Volatility [1]: 0.11 ng/min |
| COc1c(Cl)ccc(Cl)c1C(=O)Oc1nc(-c2ccccc2)cs1 [Compound A-120] | 40 | 58 | 68 | 85 | 63 | 85 | 5 | – | – | – | – | – | – | – | – | pest or weed control at 140 g/ha ([3]; AMAPA): 28%; pest or weed control at 280 g/ha ([3]; AMAPA): 45%; pest or weed control at 140 g/ha [4]: 85%; pest or weed control at 280 g/ha [4]: 99% |
| COc1c(Cl)ccc(Cl)c1C(=O)O/N=C(\N)CCCCC/C(N)=N/OC(=O)c1c(Cl)ccc(Cl)c1OC [Compound A-146] | 70 | 63 | 83 | 86 | 89 | 96 | 0 | 43 | 60 | – | – | – | – | – | – | pest or weed control at 140 g/ha [4, 5]: 73%; pest or weed control at 280 g/ha [4, 5]: 63% |
| COc1c(Cl)ccc(Cl)c1C(=O)O/N=C(\C)C(C)(C)C [Compound A-82] | 78 | 72 | 90 | 88 | – | – | – | 85 | 83 | 98 | 88 | 91 | 96 | 27 | 7 | – |
| COc1c(Cl)ccc(Cl)c1C(=O)O/N=C/c1cccnc1 [Compound A-81] | 3 | 8 | 15 | 27 | – | – | – | 17 | 15 | 2 | 7 | 0 | 7 | 19 | 20 | – |
| CCCCCC(=O)NOC(=O)c1c(Cl)ccc(Cl)c1OC [Compound A-80] | 33 | 38 | 63 | 62 | – | – | – | 20 | 35 | 13 | 22 | 20 | 23 | 2 | 4 | – |
| COc1c(Cl)ccc(Cl)c1C(=O)ON1C(=O)CCC1=O [Compound A-73] | 50 | 88 | 77 | 82 | – | – | 1 | 70 | 83 | – | – | 85 | 80 | – | 4 | pest or weed control at 140 g/ha (Kochia scoparia (KCHSC)): 82%; pest or weed control at 280 g/ha (Kochia scoparia (KCHSC)): 88% |
| CCOC(=O)/C(C#N)=N/OC(=O)c1c(Cl)ccc(Cl)c1OC [Compound A-86] | 63 | 67 | 88 | 91 | – | – | – | 72 | 73 | 90 | 97 | 87 | 95 | 32 | 25 | – |
| CCOC(=O)C(=NOC(=O)c1c(Cl)ccc(Cl)c1OC)C(=O)OCC [Compound A-87] | 37 | 20 | 70 | 65 | – | – | – | 62 | 53 | 90 | 70 | 30 | 33 | 5 | 28 | – |
| COc1c(Cl)ccc(Cl)c1C(=O)O/N=C/c1cccc(/C=N/OC(=O)c2c(Cl)ccc(Cl)c2OC)c1 [Compound A-143] | 73 | 48 | 86 | 86 | 88 | 88 | 0 | 70 | 64 | – | – | – | – | – | – | pest or weed control at 140 g/ha [4, 5]: 80%; pest or weed control at 280 g/ha [4, 5]: 93% |
| COc1c(Cl)ccc(Cl)c1C(=O)ONC(=O)c1ccccc1 [Compound A-89] | 63 | 78 | 80 | 90 | – | – | – | 70 | 88 | 84 | 95 | 77 | 95 | 13 | 5 | – |
| COc1c(Cl)ccc(Cl)c1C(=O)NCc1ccccc1 [Compound A-114] | 0 | 5 | 5 | 0 | 0 | 0 | 3 | – | – | – | – | – | – | – | – | pest or weed control at 140 g/ha ([3]; AMAPA): 5%; pest or weed control at 280 g/ha ([3]; AMAPA): 5%; pest or weed control at 140 g/ha [4]: 2%; pest or weed control at 280 g/ha [4]: 7% |
